Reference: patent US7192714B2, “LDL receptor signaling assays” (Board of Regents, The University of Texas System, priority 2001, dated 2007)

What was measured:
LRP-Gal4/VP16 = LRP-Gal4/VP16 luciferase reporter gene assay in transfected 293 cells; format: cell-based, human
Method: (§1) Cell Culture and transfection of 293 cells: The human embryonic kidney cell line HEK 293 (CRL-1573, ATCC) was maintained in monolayer culture at 37° C. under a 8% CO2 atmosphere. On day 0 cells were set up at a density of 5×105 per 60 mm dish in Dulbecco's Modified Eagle's Medium (low glucose) containing 100 U/ml penicillin, 100 ug/ml streptomycin sulfate and 10% (v/v) FCS. On day one cells were transfected by calcium phosphate precipitation (MBS Kit™, Stratagene, La Jolla, Calif., used according to manufacturers' instructions) with 9 ug of the pG5 E1B-Luc plasmid, 0.5 ug of pCMV-b-Gal for internal control of transfection efficiency, the respective receptor construct and expression vectors for different adapter proteins or other components as indicated in the text. On day two treatment with TPA or other reagents was started as described above and cells were harvested 24 h to 48 h later.
Reporter gene assays: 293 cells were harvested for reporter gene assays 48 h after transfection. Their culture medium was removed and the cells were washed once with PBS. After addition of 400 ul “Reporter Lysis Buffer” (Promega, Madison, Wis.) per 60mm dish cells were processed according to manufacturers' instructions. Luciferase gene expression was analyzed using the “Luciferase Assay System” (Promega, Madison, Wis.). A 10 s integral measurement of light emission from each reaction mixture was performed in a tube luminometer (Octopump II, MOM Instruments).
β-Gal assays for internal control of […] were carried out with an aliquot of the cell lysates prepared for the luciferase assay using the ‘Chemiluminescent b-Gal Detection Kit” (Clontech, Palo Alto, Calif.). Normalization of luciferase activity to b-Gal activity was done by dividing RLU values obtained with the first assay by those from the latter reaction. All transfections for reporter gene assays were repeated in at least two independent experiments.
Experimental Strategy. The Gal4/VP16 fusion protein, which consists of the DNA binding domain of the yeast Gal4 transcription factor and of the transactivating domain of the Herpes simplex virus protein VP16, is able to drive transcription from a luciferase reporter plasmid that contains five Gal4 binding elements in front of the adenoviral E1B minimal promoter and the firefly luciferase gene. […]
Treatment of 293 Cells with the Proteasome Inhibitor Lactacystin Stabilizes the Intracellular LRP-Cleavage Product. […] Subsequently cell lysates were prepared and examined for luciferase activity. β-Gal activity was measured to correct for transfection efficiency. […]

pMstGV-LDL-R construct = assay: LDL-R-Gal4/VP16 (pMstGV-LDL-R) luciferase reporter gene assay in transfected 293 cells; format: cell-based, human; conditions: 100 nM TPA for 24 h
Method: as §1
(§2) Reporter gene assays: 293 cells were harvested for reporter gene assays 48 h after transfection. Their culture medium was removed and the cells were washed once with PBS. After addition of 400 ul “Reporter Lysis Buffer” (Promega, Madison, Wis.) per 60mm dish cells were processed according to manufacturers' instructions. Luciferase gene expression was analyzed using the “Luciferase Assay System” (Promega, Madison, Wis.). […]

pMstGV-APP construct = assay: APP-Gal4/VP16 (pMstGV-APP) luciferase reporter gene assay in transfected 293 cells; format: cell-based, human; conditions: 100 nM TPA for 24 h
Method: as §1, §2

LRP [1] = assay: Endogenous LRP levels by Western blotting in untransfected 293 cells; format: cell-based, human
Method: (§3) SDS-Page and immunoblot analysis: SDS-Page and immunoblotting were performed according to standard procedures. Briefly, equal amounts of protein as determined with the Coomassie Plus Protein Reagent (Pierce, Rockford, Ill.) were loaded on 4–12% SDS PA gels. After electrophoresis and protein transfer on a PVDF membrane immunoblot, analysis was carried out with rabbit polyclonal antibodies against a C-terminal fragment of LRP. Bound antibodies were visualized with peroxidase-conjugated anti-rabbit IgG by using the SuperSignal CL-HRP Substrate (Pierce, Rockford, Ill.) according to the manufacturer's instructions.
(§4) Then cell lysates were prepared and analyzed by Western Blotting. The antibody used for immunostaining is directed against LRP's C-terminus.
TPA Treatment Leads To Decreased LRP Levels in 293 Cells. […] Then cell lysates were prepared and analyzed by Western Blotting. The antibody used for immunostaining is directed against LRP's C-terminus.

LRP [2] = assay: Endogenous LRP levels by Western blotting in MEF-1 cells; format: cell-based, mouse
Method: as §3, §4
Decrease of LRP Levels after TPA Treatment is Time-Dependent. […] Then cell lysates were prepared and used for SDS-PAGE and Western Blotting. LRP was stained with an antibody directed against its cytoplasmic tail.

Structure (SMILES)	luciferase activity, elevation under stimulated versus unstimulated conditions (LRP-Gal4/VP16; 100 nM TPA for 24 h, pcDNA3.1-LRP-Gal4/VP16)	corrected luciferase activity (intracellular/intramembraneous LRP cleavage) versus unstimulated cells (LRP-Gal4/VP16; 100 nM TPA, time periods of 12, 16, 20 and 24, pcDNA3.1-LRP-Gal4/VP16)	luciferase activity, stimulated versus unstimulated (pMstGV-LDL-R construct)	luciferase activity, stimulated versus unstimulated (pMstGV-APP construct)	effect on endogenous LRP levels (LRP [1]; 100 nM TPA for 24 h or time indicated, untransfected 293 cells)	decrease of cellular LRP levels (LRP [1]; 100 nM TPA, various time periods up to 48 h, Western blot, antibody against LRP C-terminus, text names 293 and MEF-1 cells, heading 293) [%]	effect on endogenous LRP levels (LRP [2]; 100 nM TPA for 24 h or time indicated)	decrease of LRP levels, time course (LRP [2]; TPA for 0.5, 1.5, 5, 5, 6 and 24 h)	luciferase signal enhancement (stabilization of intracellular LRP-cleavage product) (LRP-Gal4/VP16; 10 uM lactacystin for 24 h)	luciferase signal enhancement (stabilization of intracellular LRP-cleavage product) (LRP-Gal4/VP16; 50 uM lactacystin for 24 h)
CCCCCCCCCCCCCC(=O)O[C@@H]1[C@@H](C)[C@@]2(O)[C@@H](C=C(CO)C[C@]3(O)C(=O)C(C)=C[C@@H]23)[C@@H]2C(C)(C)[C@]12OC(C)=O [TPA, Phorbol 12-myristate 13-acetate]	up to 10 fold	linear increase	negligible activity under stimulated and unstimulated conditions	equivalent elevated activity under both stimulated and unstimulated conditions	Lowers Endogenous LRP Levels	≤ 90	Lowers Endogenous LRP Levels	Time-Dependent		
CC(=O)N[C@@H](CSC(=O)[C@]1([C@@H](O)C(C)C)NC(=O)[C@H](C)[C@@H]1O)C(=O)O [lactacystin, Lactacystin]									about 25 fold	about 25 fold
